Experimental data: patent US20100076010A1, “ALPHA 1A-ADRENOCEPTOR ANTAGONISTS” (CONCERT Pharmaceuticals, Inc., priority 2007, published 2010)

Test: Evaluation of metabolic stability in human liver microsomes
Assay type: in vitro ADME
Conditions: for half-life at 1 μM: in vitro t1/2, 0.5 mg/mL human liver microsomes, 1 μM test compound, 2 mM NADPH, pH 7.4, 37° C., 0-30 minutes, average of two experiments, read-out: Half-life (t1/2) (min) ± SD; for Increase over Silodosin (%): increase of HLM half-life relative to silodosin
Protocol: Evaluation of Metabolic Stability in Human Liver Microsomes. Human liver microsomes (“HLM”; 20 mg/mL) were obtained from Xenotech, LLC (Lenexa, Kans.). β-nicotinamide adenine dinucleotide phosphate, reduced form (NADPH), magnesium chloride (MgCl2), and dimethyl sulfoxide (DMSO) were purchased from Sigma-Aldrich.
Stock solutions of Compounds 108, 110, 111 and silodosin (7.5 mM) were separately prepared in DMSO. The 7.5 mM stock solutions were diluted to 50 μM in acetonitrile (ACN). The 20 mg/mL human liver microsomes were diluted to 0.625 mg/mL in 0.1 M potassium phosphate buffer, pH 7.4, containing 3 mM MgCl2. The diluted microsomes (375 μL) were added to wells of a 96-well deep-well polypropylene plate in triplicate. Ten μL of the 50 μM test compound solution was added to the microsomes and the mixture was pre-warmed for 10 minutes. Reactions were initiated by addition of 125 μL, of pre-warmed NADPH solution (8 mM NADPH in 0.1M potassium phosphate buffer, pH 7.4, containing 3 mM MgCl2). The final reaction volume was 0.5 mL and contains 0.5 mg/mL human liver microsomes, 1 μM test compound, and 2 mM NADPH in 0.1 M potassium phosphate buffer, pH 7.4, and 3 mM MgCl2. The reaction mixtures were incubated at 37° C., and 50 μL aliquots were removed at 0, 5, 10, 20, and 30 minutes and added to shallow-well 96-well plates which contain 50 μL of ice-cold ACN with internal standard to stop the reactions. The plates were stored at 4° C. for 20 minutes after which 100 μL of water was added to the wells of the plate before centrifugation to pellet precipitated proteins. Supernatants were transferred to another 96-well plate and analyzed for amounts of parent remaining by LC-MS/MS using an Applied Bio-systems API 4000 mass spectrometer.
The in vitro t1/2s for test compounds were calculated from the slopes of the linear regression of % parent remaining (ln) vs incubation time relationship. in vitro t1/2=0.693/k, where k=−[slope of linear regression of % parent remaining(ln) vs incubation time]. The experiment was performed twice. Data analysis was performed using Microsoft Excel Software.

C[C@H](Cc1cc2c(c(C(N)=O)c1)N(CCCO)CC2)NCCOc1ccccc1OCC(F)(F)F [Silodosin, (R)-1-(3-hydroxypropyl)-5-(2-(2-(2-(2,2,2-trifluoroethoxy)phenoxy)ethylamino)-propyl)indoline-7-carboxamide, reference compound]
half-life at 1 μM: 37 ± 0.1 min

[2H]C([2H])(N[C@H](C)Cc1cc2c(c(C(N)=O)c1)N(CCCO)CC2)C([2H])([2H])Oc1ccccc1OC([2H])([2H])C(F)(F)F [Compound 110, (R)-1-(3-hydroxypropyl)-5-(2-(2-(2-(2,2,2-d2-trifluoroethoxy)phenoxy)-d4-ethylamino)propyl)indoline-7-carboxamide]
half-life at 1 μM: 43 ± 10 min
Increase over Silodosin (%): 17%

[2H]C([2H])(O)C([2H])([2H])C([2H])([2H])N1CCc2cc(C[C@@H](C)NC([2H])([2H])C([2H])([2H])Oc3ccccc3OC([2H])([2H])C(F)(F)F)cc(C(N)=O)c21 [Compound 108, (R)-1-(3-Hydroxy-(1,1,2,2,3,3-d6)-propyl)-5-(2-(2-(2-(2,2,2-trifluoro-1,1-d2-ethoxy)phenoxy)-(1,1,2,2-d4)-ethylamino)propyl)indoline-7-carboxamide]
half-life at 1 μM: 44 ± 1.2 min
Increase over Silodosin (%): 21%

[2H]C([2H])(O)C([2H])([2H])C([2H])([2H])N1CCc2cc(C[C@@H](C)NCCOc3ccccc3OCC(F)(F)F)cc(C(N)=O)c21 [Compound 111, (R)-1-(3-Hydroxy-(1,1,2,2,3,3-d6)-propyl)-5-(2-(2-(2-(2,2,2-trifluoroethoxy)-phenoxy)ethylamino)propyl)indoline-7-carboxamide]
half-life at 1 μM: 32 ± 0.1 min
Increase over Silodosin (%): 0%
